In data set [1] the target is T1, recombinant BRD4 (BD1 + BD2) (Homo sapiens, UniProt O60885).
T1 construct: employing a recombinant BRD4 (BD1 + BD2) and its corresponding ligand
The data set is described as follows: BRD4 TR-FRET activity assay.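 Further: signal rises with BET ligand binding to the bromodomains, so inhibitors lower it, 120 min incubation at room temperature, 1% DMSO, wells lacking ligand as negative control.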 The data set is classed as binding. To be noted: 1 μmol/L; read-out: BRD4 inhibition rate. Background: TR-FRET usually uses a lanthanide donor and a delayed reading to cut background.
Procedure: The BRD4 activity assay utilized TR-FRET technology, employing a recombinant BRD4 (BD1 + BD2) and its corresponding ligand. The TR-FRET signal generated in the assay is proportional to the ligand’s binding to the bromodomains. All reactions contained a final DMSO concentration of 1%. All binding reactions were conducted at room temperature. Each 20 µL reaction mixture, in assay buffer, comprised bromodomains, the BET Ligand, and the specified inhibitor amount. For the negative control, 5 µL of assay buffer replaced the BET ligand. After a 120-min incubation with the ligand, the TR-FRET signal was captured using a Tecan Infinite M1000 plate reader. IC50 values were determined through nonlinear regression with a normalized dose-response fit in Prism GraphPad software.

Drawing on PMC10720709, “Design, synthesis, and evaluation of 4-(3-(3,5-dimethylisoxazol-4-yl)benzyl)phthalazin-1(2H)-one derivatives: potent BRD4 inhibitors with anti-breast cancer activity” (Frontiers in Pharmacology, 2023), this text covers melting point and inhibition for 56 molecules.

The term melting point denotes the temperature, or range, at which the solid turns liquid. Broadly, the inhibition is the relative decrease from the control value, in per cent. In the case of `Cc1noc(C)c1-c1cc(Cc2n[nH]c(=O)c3ccccc23)cc(C(=O)N2CCN(C(=O)C3CC3)CC2)c1` [DDT17], the melting point lay in the range of 154 to 155 °C. Also, the inhibition at 1 µM in data set [1] is 16%.
As for `Cc1noc(C)c1-c1cc(Cc2n[nH]c(=O)c3ccccc23)cc(NS(=O)(=O)c2ccc(C(C)C)cc2)c1` [DDT64], the inhibition at 1 µM in data set [1] came out at 69%.
`Cc1noc(C)c1-c1cc(Cc2n[nH]c(=O)c3ccccc23)cc(NCc2cccc(Cl)c2)c1` [DDT38] displayed a melting point of 235 to 236 °C. Also, the inhibition at 1 µM in data set [1] turned out to be 8%.
Regarding `Cc1noc(C)c1-c1cc(Cc2n[nH]c(=O)c3ccccc23)cc(C(=O)N[C@H]2CC[C@@H](O)CC2)c1` [DDT11], the melting point was 214 to 215 °C. Also, the inhibition at 1 µM in data set [1] came out at 54%.
For `COCCS(=O)(=O)Nc1cc(Cc2n[nH]c(=O)c3ccccc23)cc(-c2c(C)noc2C)c1` [DDT53], in that order: 181 to 182 °C and 9%.
For `Cc1noc(C)c1-c1cc(Cc2n[nH]c(=O)c3ccccc23)cc(NS(=O)(=O)c2cccc(Cl)c2)c1` [DDT88], in that order: 142 to 143 °C and 17%.
For the molecule `Cc1noc(C)c1-c1cc(Cc2n[nH]c(=O)c3ccccc23)cc(C(=O)N2CC[C@@H](O)C2)c1` [DDT13], in data set [1], the inhibition at 1 µM stood at 71%.
As to `Cc1noc(C)c1-c1cc(Cc2n[nH]c(=O)c3ccccc23)cc(NC(=O)c2ccc([N+](=O)[O-])cc2)c1` [DDT30], in data set [1], the inhibition at 1 µM was found to be 74%.
The molecule `Cc1noc(C)c1-c1cc(Cc2n[nH]c(=O)c3ccccc23)cc(NS(=O)(=O)c2ccc3c(c2)CCO3)c1` [DDT75] gave a melting point of 162 to 163 °C. The inhibition at 1 µM in data set [1] was determined as 42%.
As for `Cc1noc(C)c1-c1cc(Cc2n[nH]c(=O)c3ccccc23)cc(C(=O)NC2CCCCC2)c1` [DDT04], the melting point is 178 to 179 °C. In data set [1], the inhibition at 1 µM is 56%.
Turning to `Cc1noc(C)c1-c1cc(Cc2n[nH]c(=O)c3ccccc23)cc(NS(=O)(=O)c2cccc(S(C)(=O)=O)c2)c1` [DDT94], the melting point lay in the range of 243 to 244 °C. The inhibition at 1 µM in data set [1] was 5%.
For `Cc1noc(C)c1-c1cc(Cc2n[nH]c(=O)c3ccccc23)cc(NCc2ccc(F)c(Br)c2)c1` [DDT43], in that order: more than 250 °C and 4%.
On to `Cc1noc(C)c1-c1cc(Cc2n[nH]c(=O)c3ccccc23)cc(NS(=O)(=O)c2cccc(Br)c2)c1` [DDT92], for which the melting point lay within 147 to 148 °C. In data set [1], the inhibition at 1 µM turned out to be 4%.
For `Cc1noc(C)c1-c1cc(Cc2n[nH]c(=O)c3ccccc23)cc(C(=O)NC2CCCC2)c1` [DDT03], the melting point is more than 250 °C. The inhibition at 1 µM in data set [1] is 67%.
`Cc1noc(C)c1-c1cc(Cc2n[nH]c(=O)c3ccccc23)cc(C(=O)Nc2ccccc2)c1` [DDT05] had a melting point of 192 to 193 °C. Further, the inhibition at 1 µM in data set [1] is 35%.
Molecule `Cc1noc(C)c1-c1cc(Cc2n[nH]c(=O)c3ccccc23)cc(NC(=O)c2cccc([N+](=O)[O-])c2)c1` [DDT29] came in with a melting point of more than 250 °C. For the same molecule, in data set [1], the inhibition at 1 µM came to 65%.
For the molecule `Cc1noc(C)c1-c1cc(Cc2n[nH]c(=O)c3ccccc23)cc(NCc2cccc(F)c2)c1` [DDT34], in data set [1], the inhibition at 1 µM came out at 3%.
Regarding `Cc1noc(C)c1-c1cc(Cc2n[nH]c(=O)c3ccccc23)cc(NS(=O)(=O)c2ccc(O)cc2)c1` [DDT79], the melting point was in the range of 238 to 239 °C. Besides, the inhibition at 1 µM in data set [1] worked out at 7%.
Consider `Cc1cc(C)cc(S(=O)(=O)Nc2cc(Cc3n[nH]c(=O)c4ccccc34)cc(-c3c(C)noc3C)c2)c1` [DDT60], for which the melting point lay within 155 to 156 °C. In addition, the inhibition at 1 µM in data set [1] was 28%.
`Cc1noc(C)c1-c1cc(Cc2n[nH]c(=O)c3ccccc23)cc(NS(=O)(=O)c2ccccc2Br)c1` [DDT91] came in with a melting point of 171 to 172 °C. For the same molecule, the inhibition at 1 µM in data set [1] worked out at 8%.
For the molecule `Cc1noc(C)c1-c1cc(Cc2n[nH]c(=O)c3ccccc23)cc(NCc2ccc(Br)cc2F)c1` [DDT42], the inhibition at 1 µM in data set [1] came to 3%.
In turn, `Cc1noc(C)c1-c1cc(Cc2n[nH]c(=O)c3ccccc23)cc(C(=O)N[C@H]2CC[C@H](O)CC2)c1` [DDT10] gave a melting point of 199 to 200 °C. Moreover, the inhibition at 1 µM in data set [1] turned out to be 36%.
For the molecule `Cc1noc(C)c1-c1cc(Cc2n[nH]c(=O)c3ccccc23)cc(NS(=O)(=O)c2cccc(F)c2)c1` [DDT85], the inhibition at 1 µM in data set [1] came out at 5%.
For the molecule `Cc1noc(C)c1-c1cc(Cc2n[nH]c(=O)c3ccccc23)cc(NS(=O)(=O)c2cccc(C(F)(F)F)c2)c1` [DDT81], the inhibition at 1 µM in data set [1] amounted to 20%.
The molecule `Cc1noc(C)c1-c1cc(Cc2n[nH]c(=O)c3ccccc23)cc(NC(=O)c2cccc(C(F)(F)F)c2)c1` [DDT27] gave a melting point of 231 to 232 °C. For the same molecule, the inhibition at 1 µM in data set [1] turned out to be 60%.
As to `Cc1noc(C)c1-c1cc(Cc2n[nH]c(=O)c3ccccc23)cc(NS(=O)(=O)c2ccc(Cl)cc2Cl)c1` [DDT90], the inhibition at 1 µM in data set [1] came out at 4%.
For `COc1cccc(S(=O)(=O)Nc2cc(Cc3n[nH]c(=O)c4ccccc34)cc(-c3c(C)noc3C)c2)c1` [DDT68], the melting point lay in the range of 184 to 185 °C. Further, in data set [1], the inhibition at 1 µM came to 59%.
On the same counts, the results for `COc1ccc(S(=O)(=O)Nc2cc(Cc3n[nH]c(=O)c4ccccc34)cc(-c3c(C)noc3C)c2)cc1OC` [DDT70] are 165 to 166 °C and 32%.
Molecule `Cc1noc(C)c1-c1cc(Cc2n[nH]c(=O)c3ccccc23)cc(NCc2cccc([N+](=O)[O-])c2)c1` [DDT36] showed a melting point of 229 to 230 °C. In addition, the inhibition at 1 µM in data set [1] is 3%.
In turn, `Cc1noc(C)c1-c1cc(Cc2n[nH]c(=O)c3ccccc23)cc(NS(=O)(=O)c2ccc(C(F)(F)F)cc2)c1` [DDT82] showed a melting point of 193 to 194 °C. For the same molecule, the inhibition at 1 µM in data set [1] was 24%.
Consider `Cc1noc(C)c1-c1cc(Cc2n[nH]c(=O)c3ccccc23)cc(NS(=O)(=O)c2ccc([N+](=O)[O-])cc2)c1` [DDT83], for which the inhibition at 1 µM in data set [1] was found to be 28%.
As to `CC(=O)Nc1ccc(S(=O)(=O)Nc2cc(Cc3n[nH]c(=O)c4ccccc34)cc(-c3c(C)noc3C)c2)cc1` [DDT73], the inhibition at 1 µM in data set [1] was 38%.
As for `Cc1noc(C)c1-c1cc(Cc2n[nH]c(=O)c3ccccc23)cc(C(N)=O)c1` [DDT01], in data set [1], the inhibition at 1 µM was found to be 15%.
On to `Cc1noc(C)c1-c1cc(Cc2n[nH]c(=O)c3ccccc23)cc(NS(=O)(=O)c2ccccc2)c1` [DDT57], for which the inhibition at 1 µM in data set [1] stood at 36%.
As for `COc1ccccc1S(=O)(=O)Nc1cc(Cc2n[nH]c(=O)c3ccccc23)cc(-c2c(C)noc2C)c1` [DDT67], in data set [1], the inhibition at 1 µM was found to be 24%.
Regarding `Cc1noc(C)c1-c1cc(Cc2n[nH]c(=O)c3ccccc23)cc(NS(=O)(=O)c2ccccc2C(F)(F)F)c1` [DDT80], the melting point fell in the range of 197 to 198 °C. For the same molecule, the inhibition at 1 µM in data set [1] came to 15%.
Turning to `Cc1noc(C)c1-c1cc(Cc2n[nH]c(=O)c3ccccc23)cc(NS(=O)(=O)Cc2ccccc2)c1` [DDT76], in data set [1], the inhibition at 1 µM was found to be 50%.
`Cc1noc(C)c1-c1cc(Cc2n[nH]c(=O)c3ccccc23)cc(C(=O)N2CCn3nc(C(F)(F)F)nc3C2)c1` [DDT18] returned a melting point of 161 to 162 °C. The inhibition at 1 µM in data set [1] came to 37%.
As for `Cc1noc(C)c1-c1cc(Cc2n[nH]c(=O)c3ccccc23)cc(NS(=O)(=O)c2ccc(Br)cc2)c1` [DDT93], the inhibition at 1 µM in data set [1] came to 26%.
The same measure, in the same setting: the result for `Cc1noc(C)c1-c1cc(Cc2n[nH]c(=O)c3ccccc23)cc(NCc2ccc([N+](=O)[O-])cc2)c1` [DDT37] reads 8%; that for `Cc1noc(C)c1-c1cc(Cc2n[nH]c(=O)c3ccccc23)cc(NS(=O)(=O)C(C)C)c1` [DDT54], 3%; that for `Cc1cccc(S(=O)(=O)Nc2cc(Cc3n[nH]c(=O)c4ccccc34)cc(-c3c(C)noc3C)c2)c1` [DDT58], 71%.
Take `Cc1noc(C)c1-c1cc(Cc2n[nH]c(=O)c3ccccc23)cc(NS(=O)(=O)C2CCCCC2)c1` [DDT56]: the inhibition at 1 µM in data set [1] is 24%.
In the case of `Cc1ccc(S(=O)(=O)Nc2cc(Cc3n[nH]c(=O)c4ccccc34)cc(-c3c(C)noc3C)c2)cc1C` [DDT61], in data set [1], the inhibition at 1 µM came to 49%.
Regarding `Cc1noc(C)c1-c1cc(Cc2n[nH]c(=O)c3ccccc23)cc(NC(=O)c2ccc(C(F)(F)F)cc2)c1` [DDT28], the inhibition at 1 µM in data set [1] was 54%.
On to `Cc1cccc(CNc2cc(Cc3n[nH]c(=O)c4ccccc34)cc(-c3c(C)noc3C)c2)c1` [DDT44], for which the inhibition at 1 µM in data set [1] came out at 3%.
Regarding `Cc1noc(C)c1-c1cc(Cc2n[nH]c(=O)c3ccccc23)cc(C(=O)NC2CCS(=O)(=O)CC2)c1` [DDT09], in data set [1], the inhibition at 1 µM is 4%.
On the same count and under the same terms, the result for `Cc1ccc(S(=O)(=O)Nc2cc(Cc3n[nH]c(=O)c4ccccc34)cc(-c3c(C)noc3C)c2)cn1` [DDT66] reads 8%.
Consider `Cc1noc(C)c1-c1cc(Cc2n[nH]c(=O)c3ccccc23)cc(NS(=O)(=O)c2ccccc2F)c1` [DDT84], for which the inhibition at 1 µM in data set [1] amounted to 14%.
On to `Cc1noc(C)c1-c1cc(Cc2n[nH]c(=O)c3ccccc23)cc(NS(=O)(=O)c2ccc3c(c2)OCCO3)c1` [DDT71], for which the inhibition at 1 µM in data set [1] worked out at 67%.
`Cc1ccc(CS(=O)(=O)Nc2cc(Cc3n[nH]c(=O)c4ccccc34)cc(-c3c(C)noc3C)c2)cc1` [DDT78]: the inhibition at 1 µM in data set [1] came out at 55%.
With `Cc1noc(C)c1-c1cc(Cc2n[nH]c(=O)c3ccccc23)cc(C(=O)N2CCNCC2)c1` [DDT15], the inhibition at 1 µM in data set [1] was 59%.
Still for that read-out and setting: the result for `Cc1noc(C)c1-c1cc(Cc2n[nH]c(=O)c3ccccc23)cc(C(=O)NC2CCOCC2)c1` [DDT08] reads 11%; that for `Cc1noc(C)c1-c1cc(Cc2n[nH]c(=O)c3ccccc23)cc(NCc2ccc(F)cc2)c1` [DDT35], 3%; that for `Cc1noc(C)c1-c1cc(Cc2n[nH]c(=O)c3ccccc23)cc(C(=O)N2CCC[C@@H](O)C2)c1` [DDT20], 4%.
As for `Cc1noc(C)c1-c1cc(Cc2n[nH]c(=O)c3ccccc23)cc(C(=O)NCc2ccccc2)c1` [DDT06], the inhibition at 1 µM in data set [1] stood at 4%.
